Source: patent US9598387B2 (Southern Research Institute, priority 2012, dated 2017)

Experiments:
human D2L receptors = human D2L receptors (Homo sapiens (Human), UniProt P14416); experiment: [35S]GTPγS Binding Assay, CHO D2 membranes; type: biochemical; conditions: antagonist vs dopamine; Ke = functional Ki; read-out: CHO-hD2 Ke
Procedure: Chinese hamster ovary (CHO) cells expressing human D2L and D3 receptors served as the source for membrane fractions which were washed and resuspended with assay buffer containing Mg^2+, Na^+, EGTA, and bovine serum albumin. The GTPγS binding assays were performed in a final volume of 0.5 mL for CHO D2 and 1 mL for CHO D3 containing test drug or dopamine (1 mM for D2 cells, and 100 μM for D3 cells) as indicator of binding plateau, [^35S]GTPγS (0.11 nM for CHO D2 and 0.07 nM for CHO D3, 1,250 Ci/mmole, Perkin Elmer, Boston, Mass. 02118); and cell membrane suspension (in assay buffer and GDP for final concentration of 3 μM for CHO D2 and 6 μM for CHO D3). […] The plateau binding (maximal binding stimulation) with test compound was expressed as percent of maximal binding observed with the full agonist dopamine (% Emax). Antagonist activity was assessed by testing a fixed concentration of the test compound and varying concentration of the agonist, dopamine (0.001-100 μM for CHO D2 and 0.1 nM-10 uM for CHO D3). Ke is the functional Ki (equilibrium dissociation constant) of an antagonist and is calculated according to the equation: [Test Compound]/(EC50-2/EC50-1−1), where EC50-2 is the EC50 value in the presence of the test compound and EC50-1 is the value in the absence of the test compound.

Long Evans rats = experiment: Food self-administration under PR schedule of reinforcement; type: in vivo, rat; conditions: 3.75 mg dose vs 0; t(7)=0.43, p=0.66
Procedure: These studies were performed using Long Evans rats using standard protocols. Training and testing took place in ventilated and sound-attenuated operant chambers measuring 30×21×18 cm. Each chamber contained two levers, one light above each of the levers, and a food trough. Each lever was positioned 2.5 cm from the rod floor and the food trough (measuring 5×5 cm) was centered between the two levers. A different set of animals (n=8) was trained to press a lever reinforced by food under a FR1 schedule of reinforcement. […] Percentage of baseline BPs for food self-administration was analyzed using a dependent measures t-test comparing the 0 and 3.75 mg doses of 113.

Rats = experiment: Cue-induced reinstatement of cocaine-seeking; type: in vivo, rat; conditions: 3 doses ip 20 minutes before reinstatement session
Procedure: Rats were trained to self-administer cocaine (1.0 mg/kg/injection) under a FR1 schedule of reinforcement in daily 3-h sessions and, after stable responding was established (as described above) the schedule was changed to FR3. After stable responding under the FR3 schedule was established, extinction training began. Stable responding was defined as follows: 12 consecutive sessions in which total rewards per session was greater than 20 and in which total rewards per session for the last three sessions was within ±10% of the mean of the three sessions. […] After extinction criteria were met each rat was tested in one 1-h reinstatement session; each rat received an ip injection of vehicle or one of 3 doses of the test compound and 20 minutes later was placed in the operant chamber. At the start of the reinstatement session the cocaine-associated cues (light on for 20 s and pump on for 4.5 s) were presented twice, once at 25 sec and again at 2 min into the session. Presses on the active lever illuminated the light and activated the pump.

Sequence of human D2L receptors (P14416 whole entry): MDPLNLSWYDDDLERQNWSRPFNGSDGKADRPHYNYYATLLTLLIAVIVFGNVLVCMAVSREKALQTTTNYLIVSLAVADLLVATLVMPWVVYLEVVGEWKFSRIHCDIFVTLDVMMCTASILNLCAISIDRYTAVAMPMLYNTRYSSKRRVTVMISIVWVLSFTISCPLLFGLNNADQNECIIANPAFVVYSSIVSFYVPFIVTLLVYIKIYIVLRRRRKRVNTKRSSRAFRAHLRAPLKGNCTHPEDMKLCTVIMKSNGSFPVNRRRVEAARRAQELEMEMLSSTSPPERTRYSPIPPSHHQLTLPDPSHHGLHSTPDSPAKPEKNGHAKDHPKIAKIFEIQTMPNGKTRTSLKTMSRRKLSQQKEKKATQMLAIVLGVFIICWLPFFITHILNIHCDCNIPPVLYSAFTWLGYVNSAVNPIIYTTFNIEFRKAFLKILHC

Ki (human D2L receptors): 111 ± 25 nM
Structure (SMILES): CC(C)(C)c1nc(N2CCN(CCCCNC(=O)c3cn4ccccc4n3)CC2)cc(C(F)(F)F)n1 [Compound 113, N-(4-(4-(2-(tert-Butyl)-6-(trifluoromethyl)pyrimidin-4-yl)piperazin-1-yl)butyl)imidazo[1,2-a]pyridine-2-carboxamide]
percentage of baseline BPs for food self-administration under PR schedule (Long Evans rats): did not affect food self-administration
cue-induced reinstatement (active lever presses, 1-h test) (Rats): strongly reduced in a dose-related fashion
